Where two headings read alike, the source gives them in different places.
Experiments:
E. coli PBP3 = E. coli PBP3 (Escherichia coli (strain K12), UniProt P0AD68); experiment: E. coli PBP3 Bocillin-FL fluorescence polarization competition binding assay
Excerpt: To determine the ability of boronic acid-based test PBP inhibitors to bind Penicillin Binding Proteins (PBPs), Bocillin-FL (fluorescently-labeled penicillin V; ThermoFisher Scientific) was used in a fluorescence polarization (FP) competition binding assay to assess inhibitor binding to PBP2, PBP3 or PBP4 from Escherichia coli. PBPs were cloned and purified as described previously (King, D. T, et al., ACS Infectious Diseases 2015, 1, 175-184). To establish assay conditions for competition binding, an enzyme titration/saturation binding experiment was initially performed. Bocillin-FL was prepared at 0.2 μM in a buffer comprised of 50 mM Hepes (pH 8.0), 300 mM NaCl and 5% (v/v) glycerol. Saturation binding was performed by mixing 40 μl of PBP solutions ranging in concentrations from 0-12 μM with 40 μl of the 0.2 μM Bocillin-FL solution, in individual wells of a black 384-well microplate. FP was measured immediately upon mixing (Excitation, 490 nm; Emission, 520 nm; g-factor, 0.96), using a Cytation3 (BioTek) microplate reader and measured continuously for up to 120 minutes. […] Assays (80 μl final volume) were performed with PBPs at a final concentration of 1.5 μM, Bocillin-FL at 0.1 μM and beta-lactam concentrations that ranged from 0-1000 μM. […] Bocillin-FL was added and the FP immediately measured for 60 minutes (90 minutes for PBP2). The beta-lactam potency was reported as the concentration of beta-lactam required to reduce binding of Bocillin-FL by […] (EC50). […] Binding assays for boronic acid PBP inhibitors were performed in an identical fashion.

E. coli ATCC 25922 = experiment: Broth microdilution MIC, E. coli ATCC 25922; format: cell-based; details: Escherichia coli
Protocol: (§1) To determine the ability of test compounds to potentiate the inhibition of the growth of bacterial strains, classic cell based broth microdilution minimum inhibitory concentration (MIC) assays were employed. MIC assays are performed according to CLSI methods except where otherwise noted (CLSI, 2011 and CLSI, 2009). The reference type strain E. coli ATCC 25922, the wild-type parent strain E. coli AG100, the hyper-permeable E. coli 901C and E. coli D22 and the E. coli AG100A strain lacking the acrAB efflux pump encoding genes were used to determine the ability of the PBP inhibitors to penetrate the outer membrane of gram-negative bacteria and inhibit bacterial growth. […] The P. aeruginosa PAO1, P. aeruginosa ATCC 27853 and A. baumannii ATCC 19606, along with the hyper-permeable P. aeruginosa ATCC 35151 and an engineered efflux pump-compromised strain of P. aeruginosa (ΔmexAB-oprM) were used to determine the ability of PBP inhibitors to penetrate the outer membrane of P. aeruginosa and A. baumannii and assess antibacterial activity against these important gram-negative organisms.
(§2) Briefly, cryo-preserved bacterial cultures of challenge strains are streaked for isolation on appropriate agar medium, in this case Mueller Hinton II agar. Following incubation to allow growth of the colonies, plates are sealed with parafilm and stored refrigerated for up to two weeks. For preparation of assay inoculum and to ensure low variability, at least 5 colonies are picked from the agar plates with an inoculating loop and aseptically transferred to a culture tube containing 3 mL of Mueller-Hinton Broth (supplemented with divalent cations to required levels based on Manufacturers' certification). The broth culture is grown for 3-5 hours at 37° C. with shaking at 200 rpm. Meanwhile, 2-fold serial dilutions of test compounds are conducted in a 96 well plate with a final volume of 75 μL per well at 2-fold the final desired concentration. After the dilution plates are set up the growing cultures are then diluted in a cuvette containing MH II broth and the optical density is measured at 600 nm. The Inoculum is diluted such that 75 μL of this culture in Mueller-Hinton Broth results in a starting bacterial concentration of 5×10^5 CFU/mL when added to the dilution plates. The plates are incubated for 16-20 hours at 37° C. The MIC values are read visually as the lowest concentration well with no bacterial growth.

E. coli AG100 = experiment: Broth microdilution MIC, E. coli AG100 (wild-type parent); format: cell-based; details: Escherichia coli; wild-type parent E. coli AG100, broth microdilution; read-out: MIC E. coli AG100
Protocol: To determine the ability of test compounds to potentiate the inhibition of the growth of bacterial strains, classic cell based broth microdilution minimum inhibitory concentration (MIC) assays were employed.
as §2

E. coli 901C = experiment: microbe, parasite or virus in culture; format: cell-based; details: Escherichia coli; hyper-permeable E. coli 901C, broth microdilution; read-out: MIC E. coli 901C
Protocol: as §1, §2

E. coli AG100A = experiment: microbe, parasite or virus in culture; format: cell-based; details: Escherichia coli, read-out: MIC E. coli AG100A
Protocol: as §1, §2

E. coli D22 = experiment: microbe, parasite or virus in culture; format: cell-based; details: Escherichia coli; hyper-permeable E. coli D22, broth microdilution; read-out: MIC E. coli D22
Protocol: as §1, §2

K. pneumoniae SI-117 = experiment: microbe, parasite or virus in culture; format: cell-based; details: Klebsiella pneumoniae, SI117, read-out: MIC K. pneumoniae SI-117
Protocol: as §1, §2

K. pneumoniae UMM = experiment: microbe, parasite or virus in culture; format: cell-based; details: Klebsiella pneumoniae; K. pneumoniae UMM producing SHV-5 and KPC-2; read-out: MIC K. pneumoniae UMM
Protocol: as §1, §2

K. pneumoniae 848844 = experiment: microbe, parasite or virus in culture; format: cell-based, Klebsiella pneumoniae; details: Klebsiella pneumoniae; K. pneumoniae 848844 producing SHV-11 and KPC-2; read-out: MIC K. pneumoniae 848844
Protocol: as §1, §2

[1] = ATCC25922, E. coli ATCC 25922, broth microdilution, read-out: MIC E. coli 25922
[2] = ATCC25922, read-out: MIC E. coli 25922

Sequence of E. coli PBP3 (P0AD68 whole entry): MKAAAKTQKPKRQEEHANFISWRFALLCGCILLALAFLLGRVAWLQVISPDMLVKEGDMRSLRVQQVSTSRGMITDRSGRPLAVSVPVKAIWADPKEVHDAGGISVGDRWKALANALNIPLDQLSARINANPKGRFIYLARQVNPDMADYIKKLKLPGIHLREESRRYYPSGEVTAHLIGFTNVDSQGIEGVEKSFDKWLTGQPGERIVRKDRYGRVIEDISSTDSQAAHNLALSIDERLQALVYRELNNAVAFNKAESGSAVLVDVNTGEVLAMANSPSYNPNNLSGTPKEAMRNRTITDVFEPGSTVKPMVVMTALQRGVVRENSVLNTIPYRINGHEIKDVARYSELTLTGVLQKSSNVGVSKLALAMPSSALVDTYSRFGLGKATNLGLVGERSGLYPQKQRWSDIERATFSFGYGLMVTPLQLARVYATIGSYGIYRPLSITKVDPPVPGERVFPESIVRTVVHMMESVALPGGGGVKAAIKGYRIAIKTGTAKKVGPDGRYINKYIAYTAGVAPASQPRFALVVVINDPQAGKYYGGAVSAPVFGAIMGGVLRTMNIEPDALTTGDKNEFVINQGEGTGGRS

Row | Structure (SMILES) | EC50 (E. coli PBP3) [µM] | MIC (E. coli ATCC 25922; [1]) [µg/mL] | MIC (E. coli AG100) [µg/mL] | MIC (E. coli 901C) [µg/mL] | MIC (E. coli AG100A) [µg/mL] | MIC (E. coli D22) [µg/mL] | MIC (K. pneumoniae SI-117) [µg/mL] | MIC (K. pneumoniae UMM) [µg/mL] | MIC (K. pneumoniae 848844) [µg/mL] | EC50 (E. coli PBP3; fluorescence polarization competition binding with Bocillin-FL, read-out: E. coli K12 PBP3 Potency) [µM] | MIC (E. coli ATCC 25922; [2]) [µg/mL]
1 | CCN1CCN(C(=O)NC(C(=O)N[C@H]2Cc3cccc(C(=O)O)c3OB2O)c2ccc(OCCCN)cc2F)C(=O)C1=O (stereo partly drawn) [Example 209, (3R)-3-(2-(4-(3-aminopropoxy)-2-fluorophenyl)-2-(4-ethyl-2,3-dioxopiperazine-1-carboxamido)acetamido)-2-hydroxy-3,4-dihydro-2H-benzo[e][1,2]oxaborinine-8-carboxylic acid] | 30 to 500 | 8 to 16 | 32 to 64 | < 0.25 | 0.5 to 1 | 2 to 4 | > 128 | 32 to 64 | > 128 | – | –
2 | CCN1CCN(C(=O)N[C@H](C(=O)N[C@H]2Cc3cccc(C(=O)O)c3OB2O)c2ccc(S(N)(=O)=O)c(OC)c2)C(=O)C1=O [Example 168, (R)-3-((S)-2-(4-ethyl-2,3-dioxopiperazine-1-carboxamido)-2-(3-methoxy-4-sulfamoylphenyl)acetamido)-2-hydroxy-3,4-dihydro-2H-benzo[e][1,2]oxaborinine-8-carboxylic acid] | 30 to 500 | > 128 | > 128 | 0.5 to 1 | 8 to 16 | 8 to 16 | > 128 | > 128 | > 128 | – | –
3 | CCN1CCN(C(=O)N[C@@H](C(=O)N[C@H]2Cc3cccc(C(=O)O)c3OB2O)c2ccc(S(N)(=O)=O)c(O)c2)C(=O)C1=O [Example 167, (R)-3-((R)-2-(4-ethyl-2,3-dioxopiperazine-1-carboxamido)-2-(3-hydroxy-4-sulfamoylphenyl)acetamido)-2-hydroxy-3,4-dihydro-2H-benzo[e][1,2]oxaborinine-8-carboxylic acid] | – | 32 to 64 | 32 to 64 | < 0.25 | 2 to 4 | 2 to 4 | > 128 | 32 to 64 | > 128 | < 30 | –
4 | O=C(O)c1cccc2c1OB(O)[C@@H](NC(=O)C(NC(=O)c1c[nH]ccc1=O)c1ncc(O)cc1F)C2 (stereo partly drawn) [Example 219, (3R)-3-(2-(3-fluoro-5-hydroxypyridin-2-yl)-2-(4-oxo-1,4-dihydropyridine-3-carboxamido)acetamido)-2-hydroxy-3,4-dihydro-2H-benzo[e][1,2]oxaborinine-8-carboxylic acid] | < 30 | – | > 128 | 2 to 4 | 8 to 16 | 8 to 16 | 32 to 64 | 32 to 64 | > 128 | – | > 128
5 | NCCN1CCN(C(=O)N[C@H](C(=O)N[C@H]2Cc3cccc(C(=O)O)c3OB2O)c2ccc(O)c(O)c2Cl)C(=O)C1=O [Example 221, (R)-3-((S)-2-(4-(2-aminoethyl)-2,3-dioxopiperazine-1-carboxamido)-2-(2-chloro-3,4-dihydroxyphenyl)acetamido)-2-hydroxy-3,4-dihydro-2H-benzo[e][1,2]oxaborinine-8-carboxylic acid] | 30 to 500 | > 128 | 8 to 16 | 8 to 16 | 8 to 16 | 8 to 16 | 32 to 64 | 8 to 16 | 32 to 64 | – | –
6 | CCN1CCN(C(=O)NC(C(=O)N[C@H]2Cc3cccc(C(=O)O)c3OB2O)c2ccc(O)c(O)n2)C(=O)C1=O (stereo partly drawn) [Example 140, (3R)-3-(2-(5,6-dihydroxypyridin-2-yl)-2-(4-ethyl-2,3-dioxopiperazine-1-carboxamido)acetamido)-2-hydroxy-3,4-dihydro-2H-benzo[e][1,2]oxaborinine-8-carboxylic acid] | 30 to 500 | 8 to 16 | 32 to 64 | 0.5 to 1 | 2 to 4 | 2 to 4 | 32 to 64 | 8 to 16 | 32 to 64 | – | –
7 | CCN1CCN(C(=O)N[C@@H](C)C(=O)N[C@H]2Cc3cccc(C(=O)O)c3OB2O)C(=O)C1=O [Example 8, (R)-3-((S)-2-(4-Ethyl-2,3-dioxopiperazine-1-carboxamido)propanamido)-2-hydroxy-3,4-dihydro-2H-benzo[e][1,2]oxaborinine-8-carboxylic acid] | – | – | > 128 | > 128 | > 128 | – | > 128 | > 128 | – | – | > 128
8 | Nc1nc(C(NS(=O)(=O)c2cccnc2)C(=O)N[C@H]2Cc3cccc(C(=O)O)c3OB2O)cs1 (stereo partly drawn) [Example 7, (3R)-3-(2-(2-aminothiazol-4-yl)-2-(pyridine-3-sulfonamido)acetamido)-2-hydroxy-3,4-dihydro-2H-benzo[e][1,2]oxaborinine-8-carboxylic acid] | – | – | > 128 | 8 to 16 | 32 to 64 | – | – | > 128 | – | – | > 128
9 | CCNC(=O)NC(C(=O)N[C@H]1Cc2cccc(C(=O)O)c2OB1O)c1csc(N)n1 (stereo partly drawn) [Example 6, (3R)-3-(2-(2-aminothiazol-4-yl)-2-(3-ethylureido)acetamido)-2-hydroxy-3,4-dihydro-2H-benzo[e][1,2]oxaborinine-8-carboxylic acid] | – | – | > 128 | 8 to 16 | 8 to 16 | – | – | > 128 | – | – | > 128
10 | CCN1CCN(C(=O)NC(C(=O)N[C@H]2Cc3cccc(C(=O)O)c3OB2O)c2ncc(C(=O)NCCO)cc2F)C(=O)C1=O (stereo partly drawn) [Example 241, (3R)-3-(2-(4-ethyl-2,3-dioxopiperazine-1-carboxamido)-2-(3-fluoro-5-((2-hydroxyethyl)carbamoyl)pyridin-2-yl)acetamido)-2-hydroxy-3,4-dihydro-2H-benzo[e][1,2]oxaborinine-8-carboxylic acid] | – | – | > 128 | 0.5 to 1 | 8 to 16 | 8 to 16 | > 128 | > 128 | > 128 | – | > 128
11 | CCN1CCN(C(=O)NC(C(=O)N[C@H]2Cc3cccc(C(=O)O)c3OB2O)c2ccc(O)c(S(N)(=O)=O)c2)C(=O)C1=O (stereo partly drawn) [Example 143, (3R)-3-(2-(4-ethyl-2,3-dioxopiperazine-1-carboxamido)-2-(4-hydroxy-3-sulfamoylphenyl)acetamido)-2-hydroxy-3,4-dihydro-2H-benzo[e][1,2]oxaborinine-8-carboxylic acid] | – | 32 to 64 | 32 to 64 | < 0.25 | 2 to 4 | 2 to 4 | > 128 | 32 to 64 | > 128 | – | –

From patent US12173018B2, “Penicillin-binding protein inhibitors” (priority 2018, dated 2024)
